Measurements: a melting point compilation (Tetko et al.; mined from patent text by program, amines drawn as free bases though some values may be those of a salt)

Row | SMILES | melting point [°C]
1 | O=C1N=C(N2CCOCC2)SC1=Cc1cccc(-c2cc(F)c(O)c(C34CC5CC(CC(C5)C3)C4)c2)c1 | 293 to 295
2 | CCC[C@H]1CC[C@H](OC(=O)c2ccc(OCC)c(F)c2F)CC1 | 93
3 | COc1c(C#N)ccc2c1Cc1ccccc1CS2 | 117 to 118
4 | O=C1CCC(c2ccc(O)cc2)CC1 | 165 to 166
5 | COc1cccc(C(N)=O)c1N | 140 to 141
6 | Cc1ccnc(C(=O)c2[nH]c3cc(Cl)ccc3c2N)c1 | 195 to 196
7 | O=[N+]([O-])c1ccc(SSc2nc3ccccc3s2)c(C(Cl)(Cl)Cl)c1 | 97
8 | COc1ccc(OC(=O)c2c3ccccc3nc3ccccc23)cc1 | 202 to 203
9 | Nc1ccc(C2=NN3C(=O)OCC3Cc3cc4c(cc32)OCO4)cc1 (stereo not given) | 173 to 175
10 | CC(=O)c1cc(C(=O)c2ccccc2Cl)c(N)s1 | 190 to 191
11 | COc1cccc2c1C=C(C(=O)O)C(C(F)(F)F)O2 (stereo not given) | 204 to 207
12 | CCC(C)C(NC(=O)C(C)N(C(=O)OC(C)(C)C)C1CCCCC1)C(=O)NC(CC1CCCCC1)C(O)C(O)CC(C)C (stereo not given) | 181 to 182
13 | COc1cc2nc(N3CCN(c4nc5ncccc5o4)CC3)nc(N)c2cc1OC | > 250
14 | Cc1ccc(-c2cccc(/C=C/C(=O)Nc3ccc(CN4CCCCC4CO)cc3)c2)cc1 (stereo not given) | 137 to 139
15 | Cc1c(O)ccc2c(-c3ccccc3F)noc12 | 216 to 219
16 | N=C(N)c1cccc(Cc2c[nH]cn2)c1O | 249
17 | CN(C)CCCCCNc1nc2cc(Cl)c(Cl)cc2nc1-c1ccccn1 | 100 to 102
18 | COC(=O)C(=O)c1ccc(S(=O)CCOc2ccc3ccccc3c2)cc1 (stereo not given) | 129 to 130
19 | CC(C)(C)OC(=O)N[C@@H]1C(=O)N(O)C1(C)C | 148 to 149
20 | CCCCC12CCC3C4=C(CCC3C1CCC2=O)CC(OC)=CC4 (stereo not given) | 124 to 128
21 | Nc1ccc(-c2ncc(Br)cn2)c([N+](=O)[O-])c1 | 165 to 167
22 | CCCc1c(OCCCCCC(=O)NCCSc2ccncc2)ccc(C(C)=O)c1O | 63 to 65
23 | COc1ccc(N2CCN(c3ncc(N)cn3)CC2)cc1 | 157
24 | COc1ccc2ncn(/C=C/C(=O)O)c(=O)c2c1 | 298 to 299
25 | Cc1ccc(Sc2c(SCc3ccccc3)cc(C(=O)O)cc2S(N)(=O)=O)cc1 | 250 to 251

Row | SMILES | melting point [°C]
26 | CC[C@@]1(O)CC(=O)c2c(OC)ccc(OC)c2C1 | 132 to 134
27 | CCOC(=O)CCc1nnc(-c2nccs2)c2cc(OC)ccc12 | 153 to 154
28 | N#CSCC(Br)=C(Br)CBr | 89 to 91
29 | CC(C)(C)c1cccc(S(=O)(=O)n2c(Cc3ccc(C(=O)O)cc3)cc3cc(C(F)(F)F)ccc32)c1 | 128
30 | Cc1c(CC(C)(C)C(=O)O)n(Cc2ccc(Cl)cc2)c2ccc(OCc3cccc(-c4ccccc4)n3)cc12 | 137 to 139
31 | Cc1cc(Cl)cc(C(=O)NC2(C)CS(=O)(=O)C2)c1NC(=O)c1cc(OCC(F)(F)F)nn1-c1ncccc1Cl | > 250
32 | OC[C@@H](O)CCc1ccccc1 | 34 to 36
33 | Cc1cc(C2=CCC(c3ccc(OCC4CO4)cc3)CC2)ccc1OCC1CO1 (stereo not given) | 117
34 | Nc1cccc(NC(=O)NCCCOc2cccc(CN3CCCCC3)c2)c1 | 116 to 118
35 | CC(C)(C)c1cc(OCc2ccccc2C#N)cc(C(C)(C)C)c1O | 117 to 119
36 | CCCCc1oc2ccccc2c1/C=N/OCCCOc1ccc(CC(=O)O)cc1 | 181 to 182
37 | CCc1ccc2c(c1)C(=O)N(CCCCN1CCC(n3c(=O)oc4ccccc43)CC1)S2(=O)=O | 165 to 168
38 | COc1ccc2cc(C(C)COC(=O)c3cc(O)c4c(c3)C(=O)c3cccc(O)c3C4=O)ccc2c1 (stereo not given) | 147 to 151
39 | CC(=O)Nc1cc(Cn2c(C(=O)c3cc(C)cc(C)c3)c(C(C)C)c(=O)[nH]c2=O)ccn1 | 244 to 245
40 | CCC1(CCCCN2CCN(c3ccc(F)c(Cl)c3)CC2)C(=O)Nc2ccccc21 (stereo not given) | 121 to 124
41 | O=C(O)CC1(c2ccccc2)Oc2ccc(Cl)cc2O1 (stereo not given) | 117 to 119
42 | O=c1[nH]c2ccccc2n1-c1ncnc2nn(C3CCCC3)cc12 | 236 to 240
43 | CC(C)(C)c1cc(SCCC(=O)N(C2CCCCC2)C2CCCCC2)cc(C(C)(C)C)c1O | 168 to 172
44 | COc1ccc2[nH]c(-c3cc(C)c(O)c(C)c3)c(C)c2c1 | 158 to 159
45 | COc1cc2c(cc1OC)CCC(C(=O)O)=C2 | 191 to 194
46 | CC(=O)Nc1ccc(C(=O)C=CN(C)C)cc1 | 185 to 186
47 | CCOC(=O)c1c(C)cc2c(c1C)C(=O)O/C2=C\C#N | 108 to 109
48 | O=c1c(C2CC2)c(N2CCC(c3ccccc3)CC2)ccn1CC1CC1 | 202
49 | CC1CC(=O)NN=C1c1ccc(NC(=O)c2ccccc2O)cc1 (stereo not given) | 218 to 220
50 | Cc1cc(C#N)ccc1-c1ccc(O)cc1 | 136 to 138

Row | SMILES | melting point [°C]
51 | CCCCc1ccc(N=C2NCCCN2)cc1 | 116 to 119
52 | COCC(=O)OC(=C1C(=O)N(C(N)=O)c2cc(Cl)c(F)cc21)c1cccs1 | 199 to 200
53 | O=[N+]([O-])c1cc(F)cc2c(Cl)ccnc12 | 120 to 130
54 | OCC12CN3CN(C(c4ccccc4)N(C1)C3c1ccccc1)C2c1ccccc1 (stereo not given) | 91 to 93
55 | Nc1nc(N)c(N)c(OCC2CCCCC2)n1 | 154
56 | CN(O)C(=O)C(=Cc1ccc2ccccc2c1)c1ccc(Br)cc1 | 118 to 120
57 | CN(C(=O)CN(C(=O)CNC(=O)Nc1cccc(CCO)c1)c1ccccc1)c1ccccc1 | 152
58 | Cn1c(-c2nnc(N)s2)cnc1[N+](=O)[O-] | 263 to 265
59 | O=C(Cc1cc(O)no1)OC(c1ccccc1)c1ccccc1 | 105 to 106
60 | O=[N+]([O-])c1ccc(Sc2ncc(Cl)cn2)s1 | 141 to 143
61 | CCCCCCCn1c(C)c(CC(=O)O)c2cc(OCc3ccc4ccccc4n3)ccc21 | 127 to 131
62 | CCOc1ccc(-c2c(Cl)c(CN3C(=O)CCC3=O)nc3sc4c(c23)CCNC4)cc1 | 215 to 217
63 | N=C(CC1=CCC=CC1)N1C[C@@H]2C(=O)CCC(c3ccccc3)(c3ccccc3)[C@@H]2C1 (racemic) | 190
64 | CCCn1c(=O)n(C)c(=O)c2nc(-c3ccc(/C=C/C(=O)O)cc3)[nH]c21 | > 300
65 | CCOC(=O)C(=CNc1cccccc1=O)C(=O)OCC | 66 to 68
66 | COC(=O)c1cc2c3cc(C(C)=O)ccc3n(C)c2s1 | 196 to 198
67 | CCc1nc2c(C)cc(C)nc2n1Cc1ccc(-c2ccccc2-c2c(O)c(=O)c2=O)cc1 | 245 to 247
68 | Cc1cc(-c2cnn3c(C(F)(F)F)cc(-c4ccc(C(F)(F)F)c(OCC(F)(F)F)c4)nc23)cc(C)n1 | 245
69 | COc1cccc(-c2cccc3c2OC(COS(=O)(=O)c2ccc(C)cc2)C3)c1 (stereo not given) | 141 to 142
70 | CCCCOC(=O)c1ccc(C(=O)c2ccccc2)cc1 | 50 to 60
71 | Clc1cnc(N2CCNCC2)cn1 | 98 to 102
72 | Cn1c(=O)n(CCCC(NS(=O)(=O)c2ccc(-c3ccc(Cl)cc3)cc2)C(=O)O)c(=O)c2ccccc21 (stereo not given) | 188 to 191
73 | CC(C)(C)NNC(=O)c1ccccc1 | 94 to 95
74 | NC(c1ccccc1)C12CC(CN1)C2 (stereo not given) | 46.5 to 47
75 | O=[N+]([O-])c1cn2c(n1)O[C@@H](COc1ccc(N3CCC(CCc4ccc(OC(F)(F)F)cc4)CC3)cc1)C2 | 209 to 212

Row | SMILES | melting point [°C]
76 | COc1cc2ncnc(NNC(N)=O)c2cc1OC | 247 to 249
77 | Cn1c(C(F)(F)F)cc(=O)n(-c2cc(OCCOCCCl)c(Cl)cc2F)c1=O | 191 to 193
78 | CC(C)n1nc(-c2ccc(OCC(N)=O)nc2-c2ccccc2)ccc1=O | 137 to 138
79 | COC(=O)[C@H](CCCCNC(=O)OC(C)(C)C)NC(=O)c1ccccc1 | 108 to 109
80 | C#Cc1cc(Nc2ncnc3cnc(NCc4ccc(OC)cc4)cc23)ccc1Cl | 201 to 203
81 | CC(c1cccnc1)N(c1ccc(F)cc1F)S(C)(=O)=O (stereo not given) | 76 to 78
82 | Cc1cc(C(=O)Nc2ccc(Cl)nc2)ccc1[N+](=O)[O-] | 290
83 | C=C(C)C(=O)Oc1ccc2c(c1)CCc1cc(OC(=O)C(=C)C)ccc1-2 | 116
84 | CC1(CN)CN(c2c(F)cc3c(=O)c(C(=O)O)cn(C4CC4)c3c2F)C1 | 268 to 270
85 | O=C(O)c1ccc2c(c1)Sc1ccccc1C=C2 | 251 to 254
86 | COc1ccc(-c2cccc(C3=CCC(OC(Cc4ccccc4)C(=O)O)(c4c(Cc5ccccc5)oc5ccccc45)C=C3)c2)cc1 (stereo not given) | 73 to 75
87 | NS(=O)(=O)c1cc(C(=O)O)cc(NCc2ccco2)c1Oc1ccccc1 | 219 to 220
88 | CC(C)(C)c1ccc(OC(=O)n2c3c(c(=O)n(C4CCCCO4)c2=O)CCC3)cc1 (stereo not given) | 135
89 | COc1ccc(Cn2c(=O)c3c(Cl)cc(Cl)cc3n(Cc3ccccc3)c2=O)cc1 | 138 to 143
90 | CCCCCCCCCCCCc1ccccc1C(Sc1ncc(C(=O)O)n1C)C(O)CCC(=O)O (stereo not given) | 79 to 80
91 | NC(=O)c1cc([N+](=O)[O-])ccc1I | 230 to 233
92 | Nc1c2ccccc2nc2c(=O)[nH][nH]c(=O)c12 | 167 to 168
93 | CN(C)c1cc(Oc2cccc(C(F)(F)F)c2)nc(C(=O)O)c1 | 61 to 66
94 | CC(CC(=O)O)C(=O)c1ccc(-n2ccc(=O)cc2)cc1 (stereo not given) | 250 to 252
95 | COc1ccc(-c2nc(Sc3ccc(C(C)(C)C)cc3)[nH]c2-c2ccc(OC)cc2)cc1 | 172 to 174
96 | COc1ccc(-n2nc(-c3ccc(OC)c(CCC(=O)N(C)O)c3OC)cc2-c2ccc(Cl)cc2)cc1 | 90 to 92
97 | O=C(CNc1ccccc1)c1ccccc1 | 97 to 99
98 | N#Cc1c(NCc2ccccc2)n[nH]c1N | 150 to 152
99 | CCN1C(=O)C(C(=O)Nc2cccc(C(=O)Nc3ccccc3)c2)c2cc(C(=O)C3CCCC3)ccc21 (stereo not given) | 208 to 213
100 | Cc1cnc2c(NC(=O)c3ccccc3C(F)(F)F)cccc2c1N1CCN(C)C1=O | 182 to 191
